Experimental data as given in US9309247B2, “2-substituted imidazo[4,5-D]phenanthroline derivatives and their use in the treatment of cancer” (Aptose Biosciences Inc., priority 2013, dated 2016).

Experiments:
[1] = tested on: non-small cell lung cancer cells H226; assay: XTT cell proliferation assay, H226; type: cell-based, human; conditions: 5 days incubation, read-out: Antiproliferative activity, NSCLC H226
Description: [The procedure below names another cell line; the source lists this cell line under the same test.] (§1) Exemplary compounds 1-8 were tested for anti-cancer activity in vitro using human renal cancer cells (ACHN and CAK-1), human pancreatic cells (BXPC3 and SU-86-86), human prostate cancer cell (DU14), human colon carcinoma cells (HT-29 and KM-12), leukemia cells (HL60), brain cancer/tumour cells (SK-A-AS, U87-MG), and human non-small cell lung cancer cells (H460). Compounds 1-8 are the specific embodiments of Formula (I) and Formula (IV) as described above in this application.
(§2) The cells were maintained as a monolayer in a growth medium; McCoy's 5A modified medium (Sigma, St. Louis, Mo.), supplemented with 2 mM L-glutamine (Gibco, Grand Island, N.Y.), 10% fetal bovine serum (FBS) (Multicell, WISENT Inc. St-Bruno, QC), antibiotic-antimycotic (Multicell), at 37° C. in a 5% CO2-humidified incubator. Cells were transferred onto 150 mm tissue culture plates and grown until sub-confluency (70-80%) prior to their use. The in vitro antiproliferative activity of compounds was evaluated by incubating the cells with varying concentrations of exemplary compounds as shown in Table 1 for 5 days. The efficacy of these compounds in this cell proliferation assay was measured based in the ability of live cells to reduce the tetrazolium salt XTT to orange colored compounds of formazan (XTT cell proliferation kit IT, Roche Applied Science, Montreal, QC).

EL4 (mouse, lymphoma) = assay: Cell growth inhibition assay, EL4; type: cell-based; conditions: five days of incubation, XTT; read-out: IC50 EL4 (ms)
Description: (§3) In this study, compounds 1-8 were screened in vitro against a panel of four mouse lymphoma cell lines and two human lymphoma cell line for cell growth inhibition activity. Following treatment, half maximal inhibitory concentrations (IC50) were determined with the objective of selecting the most efficacious compounds for evaluation of in vitro absorption, distribution, metabolism, and excretion (ADME) screening.
(§4) Similarly, human Burkitt's lymphoma Ramos cells (ATCC CRL-1596) were grown in suspension in Roswell Park Memorial Institute (RPMI) 1640 medium supplemented with 10% fetal bovine serum (FBS), 10 mM HEPES KOH pH 7.4, and 2 mM sodium pyruvate. Mouse P388D1 (ATCC CCL-46) and WR19L (ATCC TIB-52) cells were grown in suspension in Dulbecco's Modified Eagle Medium (DMEM) with 10% fetal bovine serum (FBS), 10 mM HEPES, and 2 mM sodium pyruvate. Mouse WEHI231 (ATCC CRL-1702) and EL4 (ATCC TIB-39) cells were grown in suspension in DMEM with 10% fetal bovine serum (FBS), 10 mM HEPES KOH pH 7.4, 2 mM sodium pyruvate, and 0.05 mM β-mercaptoethanol. All cells were maintained at 37° C. in an atmosphere of 5% CO2 in air. Logarithmically growing cells were routinely sub-cultured twice weekly. Briefly, cells were collected by centrifugation, resuspended in pre-warmed media, and diluted 1:10 into a 75 cm^2 flask.
(§5) Cells were subcultured and 4×10^3 cells (in 50 μL) were transferred to each well in a Falcon 96-well tissue culture plate. Exemplary compounds were dissolved in pure dimethyl sulphoxide (DMSO) at a concentration of 10 mM. From this 10 mM stock solution, 12 successive serial dilutions were made in DMSO (2.5 fold dilutions), ranging from 0.52 μM to 10 mM. Using these stock dilutions, 5 μL of each were added to 500 μL of media, and 50 μL of this was added to the cells. The final concentrations being tested ranged from 0.0026 μM to 50 μM. Each concentration was tested in triplicate, and DMSO and untreated cells were also included as controls. After five days of incubation with the compounds, cell viability was determined using the XTT cell proliferation kit (Roche, Cat. No. 11 465 015 001). Following the XTT protocol, 4.5-24 hours after addition of the reagent, the plates were read in a μQuant 96-well plate spectrophotometer (Biotek Instruments Inc.) and the results analyzed to determine the IC50.

[2] = tested on: human renal cancer cells CAKI-1; assay: XTT cell proliferation assay, CAKI-1; type: cell-based; conditions: 5 days incubation, read-out: Antiproliferative activity, Kidney CAKI-1
Description: as §1, §2

[3] = tested on: WEHI 231 (mouse, B-cell lymphoma); assay: Cell growth inhibition assay, WEHI231; type: cell-based; conditions: five days of incubation, XTT; read-out: IC50 WEHI231 (ms)
Description: as §3, §4, §5

[4] = tested on: colon carcinoma KM-12 cells; assay: Colon carcinoma (KM-12) xenograft model; type: in vivo, CD-1 female nude mice; conditions: vs vehicle-treated control, FIG. 2
Description: The ability of compound 1 to inhibit colon tumour growth in vivo was tested as follows. CD-1 female nude mice (7 mice per treatment group, 6-7 weeks) were injected […] with human colon adenocarcinoma cells HT-29 cells (3×10^6 cells in 0.1 ml PBS). Treatment of the mice with vehicle or 50 mg/kg/d of […] was initiated 5 days post-inoculation (size of tumours=20-40 mm^3) for 7-day cycles of five days followed by a 2 day break for 5 weeks. The size of the tumours was measured over the course of the experiment using calipers, and the weight of the tumours was measured after the animals were sacrificed.
Similar tests were conducted with colon carcinoma KM-12 cells and colon carcinoma SW-620 cells.

[5] = tested on: human prostate cancer cell DU14; assay: XTT cell proliferation assay, DU14; type: cell-based; conditions: 5 days incubation, read-out: Antiproliferative activity, Pros. DU14
Description: as §1, §2

WR19L (mouse, lymphoma) = assay: Cell growth inhibition assay, WR19L; type: cell-based; conditions: five days of incubation, XTT; read-out: IC50 WR19L (ms)
Description: as §3, §4, §5

[6] = tested on: non-small cell lung cancer cells HOP-92; assay: XTT cell proliferation assay, HOP-92; type: cell-based, human; conditions: 5 days incubation, read-out: Antiproliferative activity, NSCLC HOP-92
Description: [The procedure below names another cell line; the source lists this cell line under the same test.] as §1, §2

[7] = tested on: human colon carcinoma cells KM12; assay: XTT cell proliferation assay, KM12; type: cell-based; conditions: 5 days incubation, read-out: Antiproliferative activity, Colon KM12
Description: as §1, §2

[8] = tested on: Human Burkitt's lymphoma Raji cells; assay: Cell growth inhibition assay, Raji; type: cell-based; conditions: five days of incubation, XTT; read-out: IC50 Raji (hs)
Description: as §3
Human Burkitt's lymphoma Raji cells (ATCC CCL-86) were grown in suspension in Roswell Park Memorial Institute (RPMI) 1640 medium supplemented with 10% fetal bovine serum (FBS), 10 mM HEPES KOH pH 7.4, and 2 mM sodium pyruvate at 37° C. in an atmosphere of 5% CO2 in air. Logarithmically growing cells were routinely sub-cultured twice weekly. Briefly, cells were collected by centrifugation, resuspended in pre-warmed media, and diluted 1:10 into a 75 cm^2 flask.
as §5

[9] = tested on: human pancreatic cells SU-86-86; assay: XTT cell proliferation assay, SU-86-86; type: cell-based; conditions: 5 days incubation, read-out: Antiproliferative activity, Pancreas SU-86-86
Description: as §1, §2

[10] = tested on: non-small cell lung cancer cells HOP-62; assay: XTT cell proliferation assay, HOP-62; type: cell-based, human; conditions: 5 days incubation, read-out: Antiproliferative activity, NSCLC HOP-62
Description: [The procedure below names another cell line; the source lists this cell line under the same test.] as §1, §2

With `FC1(F)Oc2ccc(-c3nc4c5cccnc5c5ncccc5c4[nH]3)cc2O1` [Compound 1] the IC50 [1] was 0.41 µM, the IC50 (EL4 (mouse, lymphoma)) was 0.483 µM and the IC50 [2] was 0.156 µM. For the same compound, the IC50 [3] was 0.0052 µM, the “inhibition of tumour growth, as measured by tumour size” value [4] was “able to inhibit tumour growth” and the IC50 [5] was 0.17 µM. It also gave an IC50 (WR19L (mouse, lymphoma)) of 0.082 µM, an IC50 [6] of 0.16 µM and an IC50 [7] of 0.33 µM. The IC50 [8] was 0.153 µM, the IC50 [9] was 0.18 µM and the IC50 [10] was 0.21 µM.
